Measured values published in PMC10081574, “Evaluation of Antiviral Activity of Gemcitabine Derivatives against Influenza Virus and Severe Acute Respiratory Syndrome Coronavirus 2” (ACS Infectious Diseases, 2023).
Where two headings read alike, the source gives them in different places.

Columns and labels:
[1] = test system: A/Puerto Rico/8/34 (H1N1); details: for SI90 PR8: ratio of CC10 to EC90; for SI50 PR8: ratio of CC50 to EC50
[2] = test system: A/Puerto Rico/8/34 (H1N1); experiment: microbe, parasite or virus in culture; details: Influenza A virus, 72 h; for EC50 / EC90: H1N1 / PR8, MDCK; for EC50: read-out: EC50 PR8; for EC90: read-out: EC90 PR8; for viability at 10 µM: H1N1|PR8, MDCK, read-out: viability of PR8-infected cells in library screening
B/Lee/40 = experiment: CPE reduction antiviral assay in Lee-infected MDCK cells (MTT); type: cell-based, influenza B virus; details: for EC50 / EC90: Influenza B virus, MDCK, 72 h; for EC50: viability of infected cells to 50%; for EC90: read-out: EC90 Lee; for SI50 Lee: ratio of CC50 to EC50; for SI90 Lee: ratio of CC10 to EC90
in vitro = details: dog
A/Hong Kong/8/68 (H3N2) [3] = details: for SI90 HK: ratio of CC10 to EC90; for SI50 HK: ratio of CC50 to EC50
[4] = test system: influenza A and B viruses; experiment: CPE reduction antiviral assay, values summarised over influenza strains PR8, HK and Lee; type: cell-based, influenza virus; details: for EC90 / EC50: span over PR8, HK and Lee; for EC90 / EC50 / subtoxic concentration at which over 90% viability of infected cells was recorded / recovery of viability of virus-infected cells with 90% cutoff: MDCK; for EC90: read-out: EC90 against influenza viruses; for EC50: read-out: EC50 against influenza viruses; for subtoxic concentration at which over 90% viability of infected cells was recorded / recovery of viability of virus-infected cells with 90% cutoff: day 3; for SI90 against influenza viruses / SI50 against influenza viruses: over PR8, HK and Lee; for SI90 against influenza viruses: CC10/EC90; for SI50 against influenza viruses: CC50/EC50
A/Hong Kong/8/68 (H3N2) [5] = experiment: microbe, parasite or virus in culture; details: Influenza A virus, H3N2, MDCK, 72 h; for EC50: read-out: EC50 HK; for EC90: read-out: EC90 HK; for viability at 10 µM: read-out: viability of HK-infected cells in library screening
MDCK cells = details: dog, 3 days
[6] = read-out: EC50 Lee, MDCK, MOI 0.001, day 3
[7] = MOI 0.001, day 3, viability of infected cells to 90%
[8] = MOI 0.001, day 3, read-out: EC50 Lee

SMILES | SI90 PR8 [1] | SI50 PR8 [1] | EC50 [2] [µM] | EC90 [2] [µM] | SI50 Lee (B/Lee/40) | CC50 at 3 days (in vitro) [µM] | SI90 HK (A/Hong Kong/8/68 (H3N2) [3]) | SI50 HK (A/Hong Kong/8/68 (H3N2) [3]) | EC90 ([4]; Influenza A virus, PR8, MDCK) [µM] | SI90 against influenza viruses [4] | EC50 (A/Hong Kong/8/68 (H3N2) [5]) [µM] | EC90 (A/Hong Kong/8/68 (H3N2) [5]) [µM] | EC90 (B/Lee/40; [7]) [µM] | EC50 (B/Lee/40; [8]) [µM] | SI90 Lee (B/Lee/40) | CC10 (MDCK cells) [µM] | further results
O=C(Nc1ccn([C@@H]2O[C@H](CO)[C@@H](O)C2(F)F)c(=O)n1)c1ccccc1 [Compound 1] | > 3.9 | > 6.9 | 43.4 ± 8.6 | 76.2 ± 30.9 | > 13.3 | > 300 | > 3.1 | > 5.5 | 76.2 to 98.1 | > 1.9 | 54.2 ± 5.1 | 98.1 ± 0.2 | – | – | – | – | EC50 ([1]; read-out: EC50 PR8): 43.5 ± 8.6 µM; viability at 10 µM [2]: 10 to 20%; EC50 (B/Lee/40; [6]): 22.5 ± 0.4 µM; EC90 (B/Lee/40): 78.7 ± 2.7 µM; EC50 ([4]; Influenza A virus): 22.5 to 54.2 µM; subtoxic concentration at which over 90% viability of infected cells was recorded [4]: 100 µM; SI50 against influenza viruses [4]: > 5.5; viability at 10 µM (A/Hong Kong/8/68 (H3N2) [5]): 10 to 20%
O=C(Nc1ccn([C@@H]2O[C@H](CO)[C@@H](O)C2(F)F)c(=O)n1)c1ccccn1 [Compound 2a] | 5.5 | > 342.5 | 0.9 ± 0.2 | 1.8 ± 0.5 | > 495.7 | > 300 | 7.1 | > 462.2 | 1.4 to 2.2 | 4.4–7.1 | 0.6 | 1.4 ± 0.1 | 2.2 ± 0.8 | 0.6 | 4.4 | – | viability at 10 µM [2]: > 50%; EC50 ([4]; Influenza A virus): 0.6 to 0.9 µM; subtoxic concentration at which over 90% viability of infected cells was recorded [4]: 3.7 µM; SI50 against influenza viruses [4]: > 342.5; EC90 [4]: 1.4 to 16.9 µM; viability at 10 µM (A/Hong Kong/8/68 (H3N2) [5]): > 50%
Cc1ccc(C(=O)Nc2ccn([C@@H]3O[C@H](CO)[C@@H](O)C3(F)F)c(=O)n2)nc1 [Compound 2b] | 8.3 | > 22.4 | 13.4 ± 0.9 | 25.3 ± 1.3 | > 37.3 | > 300 | 1.8 | > 5.8 | – | > 1.4 | 51.8 ± 42.6 | 117 ± 18.5 | 43.8 ± 24.4 | 8.1 ± 0.7 | 4.8 | 209.2 ± 61.7 | –
Cc1cccnc1C(=O)Nc1ccn([C@@H]2O[C@H](CO)[C@@H](O)C2(F)F)c(=O)n1 [Compound 2c] | > 2.6 | > 9.2 | 32.8 ± 5.8 | 114 ± 24.7 | > 11.5 | > 300 | > 7.3 | > 11.2 | – | > 1.4 | 26.8 | 41.2 ± 0.5 | – | 26.2 ± 2 | – | >300.0 | –
O=C(Nc1ccn([C@@H]2O[C@H](CO)[C@@H](O)C2(F)F)c(=O)n1)c1ccc(-c2ccccc2)cn1 [Compound 2d] | – | > 6.5 | 46.1 ± 3 | 119 ± 66.2 | > 7.7 | > 300 | > 1.4 | > 6.0 | – | > 1.4 | 50.2 ± 3.4 | 219 ± 36.3 | – | – | – | >300.0 | EC50 (B/Lee/40; [6]): 39.1 ± 3.2 µM
O=C(Nc1ccn([C@@H]2O[C@H](CO)[C@@H](O)C2(F)F)c(=O)n1)c1ccc(F)cn1 [Compound 2f] | > 11.1 | > 41.6 | 7.2 ± 0.4 | 26.9 ± 16.3 | > 94.8 | > 300 | > 28.0 | > 49.9 | 10.7 to 34.3 | > 8.7 | 6 ± 0.1 | 10.7 ± 0.2 | 25.7 ± 6.4 | 3.2 ± 2.3 | > 11.7 | – | –
COc1ccc(C(=O)Nc2ccn([C@@H]3O[C@H](CO)[C@@H](O)C3(F)F)c(=O)n2)nc1 [Compound 2g] | > 4.4 | > 10.5 | 28.5 ± 4.2 | 68.8 ± 22.7 | > 22.6 | > 300 | > 9.3 | > 16.1 | – | > 1.4 | 18.6 ± 0.1 | 32.3 ± 0.7 | 98.1 ± 16.7 | 13.3 ± 2.7 | > 3.1 | >300.0 | –
O=C(Nc1ccn([C@@H]2O[C@H](CO)[C@@H](O)C2(F)F)c(=O)n1)c1ccc([N+](=O)[O-])cn1 [Compound 2i] | 8.1 | – | 1.1 | 2.2 ± 0.2 | > 464.8 | > 300 | 15.7 | > 518.5 | – | > 1.4 | 0.6 ± 0.1 | 1.1 | – | – | 11.0 | 17.9 ± 6.7 | EC50 (B/Lee/40; [6]): 0.7 µM; EC90 (B/Lee/40): 1.6 ± 0.1 µM
Cc1ccc(C(=O)Nc2ccn([C@@H]3O[C@H](CO)[C@@H](O)C3(F)F)c(=O)n2)cn1 [Compound 3b] | 5.7 | > 325.8 | 0.9 | 1.8 ± 0.1 | > 426.6 | > 300 | 7.3 | > 437.2 | 1.4 to 1.8 | – | 0.7 | 1.4 ± 0.2 | 1.7 | 0.7 | 6.0 | – | recovery of viability of virus-infected cells with 90% cutoff [4]: active
O=C(Nc1ccn([C@@H]2O[C@H](CO)[C@@H](O)C2(F)F)c(=O)n1)c1ccc(F)nc1 [Compound 3c] | 20.0 | > 90.6 | 3.3 ± 0.1 | 12.5 ± 3.6 | > 170.6 | > 300 | 51.2 | > 116.6 | 4.9 to 22.6 | – | 2.6 ± 0.4 | 4.9 ± 0.4 | 22.6 ± 2 | 1.8 ± 0.3 | 11.1 | – | recovery of viability of virus-infected cells with 90% cutoff [4]: active
O=C(Nc1ccn([C@@H]2O[C@H](CO)[C@@H](O)C2(F)F)c(=O)n1)c1ccc(Cl)nc1 [Compound 3d] | – | > 23.8 | 12.6 ± 2.5 | – | > 28.4 | > 300 | – | > 31.5 | – | – | 9.5 ± 0.3 | – | – | 10.6 ± 1.7 | – | 91.1 ± 53.8 | –
COc1ccc(C(=O)Nc2ccn([C@@H]3O[C@H](CO)[C@@H](O)C3(F)F)c(=O)n2)cn1 [Compound 3e] | – | > 12.8 | 23.5 ± 4.1 | – | > 16.2 | > 300 | – | > 12.5 | – | – | 24 ± 2 | – | – | 18.5 ± 2 | – | 129.7 ± 74.0 | –
O=C(Nc1ccn([C@@H]2O[C@H](CO)[C@@H](O)C2(F)F)c(=O)n1)c1ccc(C(F)(F)F)nc1 [Compound 3f] | – | > 73.6 | 4.1 ± 0.3 | – | > 73.9 | > 300 | – | > 84.7 | – | – | 3.5 ± 0.6 | – | – | 4.1 ± 0.1 | – | 7.9 ± 8.4 | –
Cc1nc(C(F)(F)F)ccc1C(=O)Nc1ccn([C@@H]2O[C@H](CO)[C@@H](O)C2(F)F)c(=O)n1 [Compound 3g] | – | – | – | – | – | > 300 | – | – | – | – | – | – | – | – | – | 8.7 ± 8.2 | antiviral activity against influenza viruses (in words) [4]: completely lost antiviral activity
NC(=O)c1nc(F)c[nH]c1=O [Favipiravir, reference compound] | > 35.3 | > 166.7 | 1.8 ± 0.1 | 8.5 ± 0.2 | > 200.0 | > 300 | > 43.5 | > 100.0 | – | – | 3 ± 0.4 | 6.9 ± 1.8 | 16.3 ± 4.2 | 1.5 ± 0.2 | > 18.4 | >300.0 | –
CCC(CC)O[C@@H]1C=C(C(=O)O)C[C@H](N)[C@H]1NC(C)=O [Oseltamivir carboxylate, reference compound] | > 24.0 | > 375.0 | 0.8 ± 0.4 | 12.5 ± 8.1 | > 30.0 | > 300 | > 600.0 | > 6,000 | – | – | < 0.05 | 0.5 ± 0.2 | 60.4 ± 0.1 | 10 ± 0.9 | > 5.0 | >300.0 | –
